Experiments:
[1] = Ready-to-use formulation stability at −20° C., 5 mg/mL (R,R)-pyrodach-2 in 10 mM Bicarbonate Buffer at pH 8.6, 10 mL vials; format: physicochemical
[2] = Ready-to-use formulation stability at 40° C./75% RH, 5 mg/mL (R,R)-pyrodach-2 in 10 mM Sodium Phosphate Buffer, 5.2 mM Sodium Pyrophosphate at pH 7.5, 10 mL vials; format: physicochemical
Procedure: Stability data on the formulation with added pyrophosphate at 40° C./75% RH in Table 12 is even more dramatic. […] [table] [table] • Transfer 1419.6 mg±14.0 mg of dibasic sodium phosphate anhydrous to a 1-L volumetric flask. • Transfer 2298.5 mg±23.0 mg of tetrasodium pyrophosphate decahydrate into the same 1-L volumetric flask. • Fill flask to approximately 75% volume with sterile water for injection, swirl as needed to dissolve all solids. • Volumetrically transfer 8.0 mL of 1N NaOH to flask. • Dilute flask to volume with water and mix well. • Record the pH of final solution. This is the vehicle. • Determine the tare weight of a 500-mL compounding vessel with stir bar. • Transfer 2500.1 mg±25.0 mg of (R,R)-pyrodach-2 to the vessel. • Transfer 450.0 g±0.1 g of the vehicle to the vessel and stir to dissolve solids. • Determine the initial pH of the solution. • Slowly adjust the pH of the solution to 7.5±0.1 by adding additional N NaOH. • Determine the gross solution weight and dilute the solution weight to 500.0 g±0.1 g by adding additional vehicle into the compounding vessel. Density=1.00 g/mL. • Stir the final solution for an additional 5 minutes. • Determine the pH of final solution. • Pass the entire solution through a 0.22 μm PVDF Stericup filter into a sterile collection vessel. • Conduct the following in a laminar flow hood; fill 10-mL sterile tubing vials with 10 mL of solution, stoppered with a sterile Flurotec stopper, and crimp-capped with a flip-off seal. • Place vials in 40° C./75% RH and 25° C./60% RH stability chambers. HPLC method in Example 3 to monitor purity and impurities.

O=P1(O)OP(=O)(O)[O][Pt]2([NH][C@@H]3CCCC[C@H]3[NH]2)[O]1 (stereo partly drawn) [(R,R)-pyrodach-2, (R,R)-trans-1,2-cyclohexanediamine-(dihydrogenpyrophosphato)platinum(II)]
Potency (Assay) ([1]; 1 month): 97.5% | Purity (% Area) ([1]; 1 month): 97.08% | Unknown Impurities RRT~0.29 ([1]; 1 month): 0.16% | Unknown Impurities RRT~0.41 ([1]; 1 month): 0.07% | Unknown Impurities RRT~0.44 ([1]; 1 month): 0.09% | Unknown Impurities RRT~0.49 ([1]; 1 month): 0.94% | Unknown Impurities RRT~0.59 ([1]; 1 month): 0.09% | Unknown Impurities RRT~0.62 ([1]; 1 month): 0.12% | Unknown Impurities RRT~0.73 ([1]; 1 month): 1.12% | Unknown Impurities RRT~1.69 ([1]; 1 month): ND (ND = Not Detected, or <0.05%) | Unknown Impurities RRT~2.96 ([1]; 1 month): ND (ND = Not Detected, or <0.05%) | Unknown Impurities RRT~3.02 ([1]; 1 month): ND (ND = Not Detected, or <0.05%) | Unknown Impurities RRT~3.12 ([1]; 1 month): 0.05% | Unknown Impurities RRT~3.24 ([1]; 1 month): ND (ND = Not Detected, or <0.05%) | Unknown Impurities RRT~3.30 ([1]; 1 month): 0.05% | Unknown Impurities RRT~3.33 ([1]; 1 month): 0.06% | Unknown Impurities RRT~3.70 ([1]; 1 month): ND (ND = Not Detected, or <0.05%) | Unknown Impurities RRT~4.02 ([1]; 1 month): 0.08% | pH ([1]; 1 month): 8.77 | Potency (Assay) ([1]; 6 month): 98.4% | Purity (% Area) ([1]; 6 month): 96.36% | Unknown Impurities RRT~0.29 ([1]; 6 month): 0.23% | Unknown Impurities RRT~0.41 ([1]; 6 month): 0.45% | Unknown Impurities RRT~0.44 ([1]; 6 month): ND (ND = Not Detected, or <0.05%) | Unknown Impurities RRT~0.49 ([1]; 6 month): 1.41% | Unknown Impurities RRT~0.59 ([1]; 6 month): 0.15% | Unknown Impurities RRT~0.62 ([1]; 6 month): ND (ND = Not Detected, or <0.05%) | Unknown Impurities RRT~0.73 ([1]; 6 month): 0.84% | Unknown Impurities RRT~1.69 ([1]; 6 month): 0.22% | Unknown Impurities RRT~2.96 ([1]; 6 month): ND (ND = Not Detected, or <0.05%) | Unknown Impurities RRT~3.02 ([1]; 6 month): ND (ND = Not Detected, or <0.05%) | Unknown Impurities RRT~3.12 ([1]; 6 month): 0.08% | Unknown Impurities RRT~3.24 ([1]; 6 month): ND (ND = Not Detected, or <0.05%) | Unknown Impurities RRT~3.30 ([1]; 6 month): 0.06% | Unknown Impurities RRT~3.33 ([1]; 6 month): 0.05% | Unknown Impurities RRT~3.70 ([1]; 6 month): ND (ND = Not Detected, or <0.05%) | Unknown Impurities RRT~4.02 ([1]; 6 month): 0.09% | pH ([1]; 6 month): 8.72 | Potency (Assay) ([1]; 12 month): 86.1% | Purity (% Area) ([1]; 12 month): 90.94% | Unknown Impurities RRT~0.29 ([1]; 12 month): 0.13% | Unknown Impurities RRT~0.41 ([1]; 12 month): 5.26% | Unknown Impurities RRT~0.44 ([1]; 12 month): ND (ND = Not Detected, or <0.05%) | Unknown Impurities RRT~0.49 ([1]; 12 month): 1.19% | Unknown Impurities RRT~0.59 ([1]; 12 month): 0.27% | Unknown Impurities RRT~0.62 ([1]; 12 month): 0.43% | Unknown Impurities RRT~0.73 ([1]; 12 month): 0.88% | Unknown Impurities RRT~1.69 ([1]; 12 month): 0.25% | Unknown Impurities RRT~2.96 ([1]; 12 month): 0.08% | Unknown Impurities RRT~3.02 ([1]; 12 month): 0.09% | Unknown Impurities RRT~3.12 ([1]; 12 month): 0.05% | Unknown Impurities RRT~3.24 ([1]; 12 month): 0.06% | Unknown Impurities RRT~3.30 ([1]; 12 month): 0.13% | Unknown Impurities RRT~3.33 ([1]; 12 month): 0.06% | Unknown Impurities RRT~3.70 ([1]; 12 month): 0.09% | Unknown Impurities RRT~4.02 ([1]; 12 month): 0.14% | pH ([1]; 12 month): 8.83 | Potency (Assay) ([1]; Initial): 100.3% | Purity (% Area) ([1]; Initial): 98.04% | Unknown Impurities RRT~0.29 ([1]; Initial): 0.11% | Unknown Impurities RRT~0.41 ([1]; Initial): ND (ND = Not Detected, or <0.05%) | Unknown Impurities RRT~0.44 ([1]; Initial): ND (ND = Not Detected, or <0.05%) | Unknown Impurities RRT~0.49 ([1]; Initial): 0.62% | Unknown Impurities RRT~0.59 ([1]; Initial): ND (ND = Not Detected, or <0.05%) | Unknown Impurities RRT~0.62 ([1]; Initial): ND (ND = Not Detected, or <0.05%) | Unknown Impurities RRT~0.73 ([1]; Initial): 1.05% | Unknown Impurities RRT~1.69 ([1]; Initial): ND (ND = Not Detected, or <0.05%) | Unknown Impurities RRT~2.96 ([1]; Initial): ND (ND = Not Detected, or <0.05%) | Unknown Impurities RRT~3.02 ([1]; Initial): ND (ND = Not Detected, or <0.05%) | Unknown Impurities RRT~3.12 ([1]; Initial): ND (ND = Not Detected, or <0.05%) | Unknown Impurities RRT~3.24 ([1]; Initial): ND (ND = Not Detected, or <0.05%) | Unknown Impurities RRT~3.30 ([1]; Initial): ND (ND = Not Detected, or <0.05%) | Unknown Impurities RRT~3.33 ([1]; Initial): ND (ND = Not Detected, or <0.05%) | Unknown Impurities RRT~3.70 ([1]; Initial): ND (ND = Not Detected, or <0.05%) | Unknown Impurities RRT~4.02 ([1]; Initial): ND (ND = Not Detected, or <0.05%) | pH ([1]; Initial): 8.60 | Individual Related Substances PT-112 Dimer ([2]; 1 Month): ND (ND = Not Detected, or <0.05%) | Individual Related Substances RRT 0.28-0.29 ([2]; 1 Month): 0.10% | Individual Related Substances RRT 0.50-0.51 ([2]; 1 Month): 0.10% | Individual Related Substances RRT 0.58 ([2]; 1 Month): 0.41% | Individual Related Substances RRT 0.73-0.74 ([2]; 1 Month): 0.68% | Individual Related Substances RRT 0.92 ([2]; 1 Month): ND (ND = Not Detected, or <0.05%) | Individual Related Substances RRT 1.57 ([2]; 1 Month): ND (ND = Not Detected, or <0.05%) | Individual Related Substances RRT 3.66-3.71 ([2]; 1 Month): ND (ND = Not Detected, or <0.05%) | Potency (Assay) ([2]; 1 Month): 101.6% | Total Related Substances ([2]; 1 Month): 1.3% | pH ([2]; 1 Month): 7.6 | Individual Related Substances PT-112 Dimer ([2]; 2 Months): ND (ND = Not Detected, or <0.05%) | Individual Related Substances RRT 0.28-0.29 ([2]; 2 Months): 0.19% | Individual Related Substances RRT 0.50-0.51 ([2]; 2 Months): 0.19% | Individual Related Substances RRT 0.58 ([2]; 2 Months): 0.41% | Individual Related Substances RRT 0.73-0.74 ([2]; 2 Months): 0.88% | Individual Related Substances RRT 0.92 ([2]; 2 Months): ND (ND = Not Detected, or <0.05%) | Individual Related Substances RRT 1.57 ([2]; 2 Months): ND (ND = Not Detected, or <0.05%) | Individual Related Substances RRT 3.66-3.71 ([2]; 2 Months): 0.07% | Potency (Assay) ([2]; 2 Months): 103.8% | Total Related Substances ([2]; 2 Months): 1.7% | pH ([2]; 2 Months): 7.6 | Individual Related Substances PT-112 Dimer ([2]; 3 Months): ND (ND = Not Detected, or <0.05%) | Individual Related Substances RRT 0.28-0.29 ([2]; 3 Months): 0.16% | Individual Related Substances RRT 0.50-0.51 ([2]; 3 Months): 0.16% | Individual Related Substances RRT 0.58 ([2]; 3 Months): 0.48% | Individual Related Substances RRT 0.73-0.74 ([2]; 3 Months): 0.86% | Individual Related Substances RRT 0.92 ([2]; 3 Months): ND (ND = Not Detected, or <0.05%) | Individual Related Substances RRT 1.57 ([2]; 3 Months): ND (ND = Not Detected, or <0.05%) | Individual Related Substances RRT 3.66-3.71 ([2]; 3 Months): 0.11% | Potency (Assay) ([2]; 3 Months): 101.5% | Total Related Substances ([2]; 3 Months): 1.8% | pH ([2]; 3 Months): 7.5 | Individual Related Substances PT-112 Dimer ([2]; 6 Months): ND (ND = Not Detected, or <0.05%) | Individual Related Substances RRT 0.28-0.29 ([2]; 6 Months): 0.17% | Individual Related Substances RRT 0.50-0.51 ([2]; 6 Months): 0.22% | Individual Related Substances RRT 0.58 ([2]; 6 Months): 0.47% | Individual Related Substances RRT 0.73-0.74 ([2]; 6 Months): 0.81% | Individual Related Substances RRT 0.92 ([2]; 6 Months): ND (ND = Not Detected, or <0.05%) | Individual Related Substances RRT 1.57 ([2]; 6 Months): ND (ND = Not Detected, or <0.05%) | Individual Related Substances RRT 3.66-3.71 ([2]; 6 Months): 0.18% | Potency (Assay) ([2]; 6 Months): 102.8% | Total Related Substances ([2]; 6 Months): 1.9% | pH ([2]; 6 Months): 7.5 | Individual Related Substances PT-112 Dimer ([2]; Initial): 0.16% | Individual Related Substances RRT 0.28-0.29 ([2]; Initial): 0.14% | Individual Related Substances RRT 0.50-0.51 ([2]; Initial): 0.08% | Individual Related Substances RRT 0.58 ([2]; Initial): 0.34% | Individual Related Substances RRT 0.73-0.74 ([2]; Initial): 0.83% | Individual Related Substances RRT 0.92 ([2]; Initial): 0.05% | Individual Related Substances RRT 1.57 ([2]; Initial): 0.12% | Individual Related Substances RRT 3.66-3.71 ([2]; Initial): ND (ND = Not Detected, or <0.05%) | Potency (Assay) ([2]; Initial): 102.0% | Total Related Substances ([2]; Initial): 1.7% | pH ([2]; Initial): 7.5
